Measured values taken from patent US7335679B2 (Arizona Board of Regents on behalf of the University of …, priority 2001, dated 2008).

Test system: C57BL6 mice
Experiment: in vivo toxicity in mice, ip daily for 4 days
Settings: ip daily × 4, MTD = >10% body weight loss
From the text: Highlighted are the compounds being made for antitumor testing.

## COC[C@H]1OC(=O)c2coc3c2[C@@]1(C)C1=C(C3=O)[C@@H]2CCC(=O)[C@@]2(C)C[C@H]1OC(C)=O [wortmannin, reference compound]
  Maximum tolerated dose mg/kg ip qD × 4: 2.5 mg/kg
